Test [1] concerns human MM.1S cells. Briefly: Subcutaneous MM xenograft model. The test is classed as in vivo, NSG mice. The method, then: i. Subcutaneous MM xenograft model: Luciferase-positive MM.1S cells (10×106 Luc-GFP-MM.1S in matrigel) were transplanted into the right flank of NSG mice (100 μL). […] Treatments were carried out daily for 8 days and tumor size assessed daily using calipers. Mice were culled when tumors reached 2000 mm3 or when moribund.

Test [2] has as its system MM.1S cells. Briefly: Reverse phase protein array (RPPA) of treated MM.1S cells. The test is classed as cell-based, human. As to the method:
MM.1S cells were seeded in 6-well plates (2×10^6/well) and cultured overnight prior to treatment. […] Lysates of these protein samples were processed by the Functional Proteomics RPPA Core Facility of the MD Anderson Cancer Center (Houston, Tex.), based on protocols and procedures outlined in the website of the facility (mdanderson.org/research/research-resources/core-facilities/functional-proteomicsrppa-core/rppa-process.html) and similarly to prior reports (Li et al., 2017). We mapped protein antibody labels to gene symbols available from Antibody Information and Protocols at MDACC (mdanderson.org/content/dam/mdanderson/documents/corefacilities/Functional%20Proteomics %20RPPA%20Core%20Facility/RPPA_Standard%20Ab%20List_Updated.xlsx). For data preprocessing, results from replicates of the same experimental run were averaged for each protein. The resulting matrix of RPPA data was further processed to generate log-transformed linear normalized data, linear normalized, and normalized median centered data. The differential protein expression analysis for dBET6- or JQ1-treated samples vs. controls were performed using the limma moderated t-statistic (Ritchie et al., 2015).

The structures appear in SMILES notation.

With `Cc1sc2c(c1C)C(c1ccc(Cl)cc1)=N[C@@H](CC(=O)NCCCCCCCCNC(=O)COc1cccc3c1C(=O)N(C1CCC(=O)NC1=O)C3=O)c1nnc(C)n1-2` (some centres unmarked) [dBET6], the “rate of tumor growth increase” value in test [1] (30 mg/kg, QD, 8d, IP) is recorded as “significantly suppressed the rate of tumor growth increase”. The “increase in overall survival” value in test [1] (30 mg/kg, QD, 8d, p<0.05) amounted to 10 days. For the same compound, the survival entry in test [1] (subcutaneous MM xenografts) is “prolongation of survival”. In addition, the “tumor burden vs vehicle” value in test [1] (subcutaneous MM.1S xenograft) is on record as “significantly lower tumor burden”. In addition, in test [2] (MM.1S, dBET6 0.1 μM, JQ1 0.5 μM, 4 hrs), the “protein changes at 4 hrs” value is “causes downregulation of Mcl-1, Cyclin B1 (not shown), and BRD4”. Besides, the “RPPA expression of pro-survival and pro-apoptotic proteins” value in test [2] (MM.1S, dBET6 0.1 μM, 4 h and 18 h) is “reduce the expression of key pro-survival proteins, such as MCL-1, c-MYC, and pS6, while leading to the upregulation of cell cycle inhibitor, p21, and cleavage of executioner caspases 3 and 7”. Further, the “protein changes at later time-points” value in test [2] (MM.1S, dBET6 0.1 μM, later time-points) was “suppression of Ser240/Ser244 S6 phosphorylation; induction of p21, and increase in cleaved caspase3/7”. Besides, the “suppression of c-MYC at protein level” value in test [2] (dBET6 vs JQ1-treated MM.1S cells) was “more pronounced suppression of c-MYC”.

Source of the values: US20220288051A1, “METHODS FOR TREATING CANCER USING SERIAL ADMINISTRATION OF E3 UBIQUITIN LIGASE DEGRADERS” (Dana-Farber Cancer Institute, Inc., priority 2019, published 2022).
